In patent US10494384B2, “Urea peptoid boric acid compound, pharmaceutical composition thereof, preparation method therefor, and uses thereof” (Peking University, priority 2015, dated 2019):

Legend:
[1] = test system: Hela, human cervical carcinoma; test: preliminary anti-tumor screening in vitro, MTT method; type: cell-based; settings: read-out: inhibition rates (%) Hela
Procedure: (§1) The test methods used in this test example are routine methods for anti-tumor activities test in pharmaceutical area, for example, referring to the following reference: (J. Immunol Method, 1983, 65, 55).
(§2) Test models: A: MTT method (Hela, human cervical carcinoma); B: SRB method (BGC-823, […]); C: SRB method (MCF-7, breast cancer); D: SRB method (A549, human lung cancer); E: SRB method (PC3M1E8, prostate cancer).
(§3) Inhibition rates of the compounds were measured under concentrations of 0.1 μM, 1 μM or 10 μM.

[2] = biological target: T1, 20S proteasome extracted from rat liver (CT-L) (Rattus norvegicus, UniProt P18421+P28075); test: inhibition of 20S proteasome, CT-L activity (fluorescent peptide); type: biochemical; settings: for inhibition at 0.2 µM / inhibition at 2 µM / inhibition at 20 µM: rat liver 20S proteasome, 37° C., 1 h, read-out: inhibition rates (%) CT-L
T1 construct: 20S proteasome extracted from rat liver; from tissue; host or cells: rat liver
Procedure: (§4) 1 μg of 20S proteasome extracted from rat liver was incubated with a 100 μL solution containing various concentrations of the present compounds, 50 μM fluorescent peptides and 20 mM Tris-HCl at 37° C. for 1 h, respectively. […] 0.1% DMSO was used as a solvent control. Compared with the fluorescence of solvent control, an inhibition rate or IC50 value was calculated.

[3] = biological target: T2, 20S proteasome extracted from rat liver (T-L) (Rattus norvegicus, UniProt P40112+Q9JHW0); test: inhibition of 20S proteasome, T-L activity (fluorescent peptide); type: biochemical; settings: for inhibition at 0.2 µM / inhibition at 2 µM / inhibition at 20 µM: rat liver 20S proteasome, 37° C., 1 h, read-out: inhibition rates (%) T-L
T2 construct: 20S proteasome extracted from rat liver; from tissue; host or cells: rat liver
Procedure: as §4

[4] = biological target: T3, 20S proteasome extracted from rat liver (PGPH) (Rattus norvegicus, UniProt P28073+Q9JHW0); test: inhibition of 20S proteasome, PGPH activity (fluorescent peptide); type: biochemical; settings: for inhibition at 0.2 µM / inhibition at 2 µM / inhibition at 20 µM: rat liver 20S proteasome, 37° C., 1 h, read-out: inhibition rates (%) PGPH
T3 construct: 20S proteasome extracted from rat liver; from tissue; host or cells: rat liver
Procedure: as §4

[5] = test system: MCF-7, breast cancer; test: preliminary anti-tumor screening in vitro, SRB method; type: cell-based; settings: Homo sapiens, read-out: inhibition rates (%) MCF-7; for inhibition at 0.1 µM: MCF7, 0.1 μM; for inhibition at 1 µM: MCF7, 1 μM; for inhibition at 10 µM: MCF7, 10 μM
Procedure: as §1, §2, §3

[6] = test system: A549, human lung cancer; test: as above; type: cell-based; settings: read-out: inhibition rates (%) A549
Procedure: as §1, §2, §3

[7] = test system: BGC-823, liver cancer; test: as above; type: cell-based; settings: Homo sapiens, read-out: inhibition rates (%) BGC-823
Procedure: as §1, §2, §3

Row | SMILES | inhibition at 0.1 µM [1] [%] | inhibition at 1 µM [1] [%] | inhibition at 10 µM [1] [%] | inhibition at 0.2 µM [2] [%] | inhibition at 2 µM [2] [%] | inhibition at 20 µM [2] [%] | inhibition at 0.2 µM [3] [%] | inhibition at 2 µM [3] [%] | inhibition at 20 µM [3] [%] | inhibition at 0.2 µM [4] [%] | inhibition at 2 µM [4] [%] | inhibition at 20 µM [4] [%] | inhibition at 0.1 µM [5] [%] | inhibition at 1 µM [5] [%] | inhibition at 10 µM [5] [%] | inhibition at 0.1 µM [6] [%] | inhibition at 1 µM [6] [%] | inhibition at 10 µM [6] [%] | IC50 [2] [nM] | IC50 [3] [nM] | other results
1 | CC(C)C[C@H](NC(=O)N[C@@H](Cc1ccccc1)C(=O)NCC1CCCO1)B(O)O (stereo partly drawn) [Example 3, N-L-leucine borate-N′-(tetrahydrofuran-2-ylmethylcarbamoyl)-L-phenylalanine-urea] | 10.2 | 14.2 | 19.2 | -20.8 | 1.91 | 68.6 | 16.9 | 18.5 | 35.9 | 7.38 | 40.8 | 88.4 | 3.24 | 9.52 | 9.37 | 5.55 | 16.6 | 14.9 |  |  | inhibition at 0.1 µM [7]: 4.73%; inhibition at 1 µM [7]: -4.01%; inhibition at 10 µM [7]: 0.96%
2 | CC(C)C[C@H](NC(=O)CNC(=O)Nc1cccc(OCc2ccccc2)c1)B(O)O [Example 21, N-glycyl-L-leucine borate-N′-(3-benzyloxy-phenylamine)-urea] | 9.87 | 12.9 | 29.9 | 47.3 | 90.9 | 95.6 | 0.355 | 29.3 | 62 | 8.58 | 62.5 | 96.9 | 5.41 | 9.64 | 24.2 | 7.42 | 25.2 | 41.4 |  |  | inhibition at 0.1 µM [7]: 0.38%; inhibition at 1 µM [7]: 2.21%; inhibition at 10 µM [7]: 23.1%
3 | Cc1cccc(CNC(=O)N[C@@H](Cc2ccccc2)C(=O)N[C@@H](CC(C)C)B(O)O)c1C [Example 30, N-L-phenylalanyl-L-leucine borate-N′-2,3-dimethyl-benzylamine-urea] |  |  |  |  |  |  |  |  |  |  |  |  |  |  |  |  |  |  | 4 | 340 | IC50 [4]: 130 nM
4 | COc1ccc(CNC(=O)[C@H](Cc2ccccc2)NC(=O)N[C@@H](CC(C)C)B(O)O)cc1 [Example 1, N-L-leucine borate-N′-(p-methoxy-benzylcarbamoyl)-L-phenylalanine-urea] | 8.67 | 28 | 38.5 | 33.8 | 86.8 | 93.6 | -6.55 | 22.8 | 35.5 | 40.9 | 87.9 | 96.6 | 1 | 7.46 | 22.9 | 1.44 | 35.3 | 50.2 |  |  | inhibition at 0.1 µM [7]: 7.79%; inhibition at 1 µM [7]: 14.9%; inhibition at 10 µM [7]: 32%
5 | CC(C)C[C@H](NC(=O)[C@H](Cc1ccccc1)NC(=O)NCc1cccc([N+](=O)[O-])c1)B(O)O [Example 36, N-L-phenylalanyl-L-leucine borate-N′-3-nitro-benzylamine-urea] |  |  |  |  |  |  |  |  |  |  |  |  |  |  |  |  |  |  | 3 | 190 | IC50 [4]: 140 nM
6 | CC(C)C[C@H](NC(=O)[C@H](Cc1ccccc1)NC(=O)NCc1ccco1)B(O)O [Example 33, N-L-phenylalanyl-L-leucine borate-N′-furan-2-ylmethylamine-urea] |  |  |  |  |  |  |  |  |  |  |  |  |  |  |  |  |  |  | 20 | 5320 | IC50 [4]: 80 nM
7 | CC(C)C[C@H](NC(=O)[C@H](Cc1ccccc1)NC(=O)N(C)Cc1ccccc1)B(O)O [Example 29, N-L-phenylalanyl-L-leucine borate-N′—(N-methyl-benzylamine)-urea] |  |  |  |  |  |  |  |  |  |  |  |  |  |  |  |  |  |  | 2 | 190 | 
